# Read-outs that look alike come from different tables or passages of the source.
# Key:
# [1] = molecular target: T1, tankyrase 2 (TNKS2) (Homo sapiens, UniProt Q9H2K2); assay: immunochemical dot-blot assay of PAR accumulation, […] NAD+; 4PL fit gave […]; type: biochemical
# T1 construct: catalytic fragment (human, recombinant, residues 849–1166)
# [2] = molecular target: T1, tankyrase 2 (TNKS2); assay: as above; type: biochemical; remark: listed apart in the source
# T1 sequence (Q9H2K2 849-1166): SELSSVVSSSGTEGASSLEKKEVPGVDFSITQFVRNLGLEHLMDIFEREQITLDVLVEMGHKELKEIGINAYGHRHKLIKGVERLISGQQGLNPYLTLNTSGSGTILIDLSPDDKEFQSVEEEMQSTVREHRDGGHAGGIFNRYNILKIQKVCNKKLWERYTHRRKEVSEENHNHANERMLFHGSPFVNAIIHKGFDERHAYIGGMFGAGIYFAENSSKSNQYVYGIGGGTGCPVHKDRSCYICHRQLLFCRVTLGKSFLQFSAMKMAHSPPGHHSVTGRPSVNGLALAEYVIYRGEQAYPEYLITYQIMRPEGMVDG
Compound,IC50 [1] [µM],IC50 [2] [µM]
O=C(NCCNC(=O)c1cnccn1)c1ccc(-c2cc3ccccc3oc2=O)cc1 [A1],< 0.01,
COc1ccc2oc(=O)c(-c3ccc(OCC(=O)NCc4cccnc4)cc3)cc2c1 [A3],,< 10

# From article PMC7397142, “Discovery of Novel Tankyrase Inhibitors through Molecular Docking-Based Virtual Screening and Molecular Dynamics Simulation Studies” (Molecules, 2020)
